Laboratory results from patent US11419916B2, “Methods and compositions for inducing differentiation of human brown adipocyte progenitors” (Energesis Pharmaceuticals, Inc., priority 2014, dated 2022).
Counter-ions that a name gives are not always drawn.

B1: BMP-7: recombinant human bone morphogenetic protein 7, UniProt P18075 (protein, UniProt P18075 293-431, looked up)
Bone morphogenetic protein 7: STGSKQRSQNRSKTPKNQEALRMANVAENSSSDQRQACKKHELYVSFRDLGWQDWIIAPEGYAAYYCEGECAFPLNSYMNATNHAIVQTLVHFINPETVPKPCCAPTQLNAISVLYFDDSSNVILKKYRNMVVRACGCH

Key:
CD31-cells = test: Light microscopic photos of cell morphology, brown adipocyte differentiation; format: cell-based, human; settings: FIGS. 23A-23H
Procedure: (§1) Cells were seeded at 10,000 per cm^2 in 0.2% gelatin coated plates (48-well tissue culture, Chemglass #CLS-3500-048), cultured until confluency (2-4 days) at 37° C. in Endothelial cell growth medium-2 (EGM2) (BulletKit growth medium, Lonza #CC-3162) and until differentiation (10-16 more days). After 2 or 3 days in EGM2 medium the cells were induced to differentiate by replacing the medium with an adipogenic medium, which is a modification of the adipogenic medium described by Rodriguez et al. and may or may not contain a differentiation inducing agent (e.g., PPARγ agonist). The MDM described above contains: DMEM/Ham's F-12 50/50 Mix (3.151 g/l, 17.5 mM D-glucose, 3.651 g/l L-glutamine) (Cellgro #10-090-CV), 5 μg/ml (0.86 μM) insulin, 1 μM dexamethasone, 100 μM 3-isobutyl-1-methylxanthine, 0.2 nM 3,3′,5-triiodo-L-thyronine, 10 μg/ml (127 nM) transferrin, and 1% penicillin-streptomycin. If rosiglitazone is used as a differentiation-inducing agent, it can be supplied at 1 μM or any other concentration sufficient to induce differentiation of BAT progenitor cells into adipocytes.
Pictures of cells were taken using a hand-held digital camera (Nikon Coolpix 950) and inverted microscope (Nikon TMS) used for cell culture observations; images were optimized using Adobe Photoshop Elements 8 functions for Auto Contrast and Auto Levels.

[1] = tested on: CD31-cells (BAT progenitor cells isolated from human skeletal muscle); test: Quantification of UCP1 and PPARγ2 mRNA (normalized to cyclophilin A) by multiplexed TaqMan real-time PCR to quantify differentiation into brown adipocytes; format: cell-based
Text: A robust method, previously disclosed in WO2013071063 and incorporated herein by reference, was used for detection of CD31-cell differentiation into brown adipocytes by simultaneously quantifying mRNA species corresponding to the brown adipocyte marker UCP1, the adipocyte marker PPARγ2, and the “housekeeping” gene cyclophilin A which was used as the internal control.
This method permits analysis of a large number of samples to identify agents that enhance the differentiation of CD31-cells into brown adipocytes. When differentiated into brown adipocytes CD31-cells express much higher levels of UCP1 and PPARγ2 mRNA for a given level of cyclophilin A. UCP1 and PPARγ2 mRNA levels normalized to cyclophilin A mRNA levels give an indication of the level of differentiation of the CD31-cells into brown adipocytes, independent of the total number of cells in the sample.
Quantification of UCP1, PPARγ2 and cyclophilin A mRNA by multiplexed TaqMan real-time PCR was thus used to quantify differentiation of the CD31-cells into brown adipocytes.
as §1, with “The MDM described above contains: DMEM/Ham's F-12 50/50 Mix (3.151 g/l, 17.5 mM D-glucose, 3.651 g/l L-glutamine) (Cellgro #10-090-CV), 5 μg/ml (0.86 μM) insulin, 1 μM dexamethasone, 100 μM 3-isobutyl-1-methylxanthine, 0.2 nM 3,3′,5-triiodo-L-thyronine, 10 μg/ml (127 nM) transferrin, and 1% penicillin-streptomycin.” left out
Total RNA was prepared from cells using PureLink RNA Isolation Kit (Invitrogen #12183-016) First strand cDNA were synthesized using the High Capacity cDNA Reverse Transcription kit (Applied Biosystems, Foster City, Calif.) and random primers.
Quantitative real-time PCR was performed using an Applied Biosystems StepOnePlus™ instrument, TaqMan Gene Expression Master Mix (Applied Biosystems #4369016), and custom TaqMan gene expression probes and primers for human uncoupling protein-1 “UCP1” (GenBank NM_021833) and for human peptidylprolyl isomerase A “cyclophilin A” (GenBank NM_021130).
Cyclophilin A was used as a control to account for any variations due to the efficiency of reverse transcription. Arbitrary units were determined by normalizing target mRNA levels to cyclophilin A mRNA levels (based on Cts).

[2] = tested on: CD31-cells (brown adipocyte progenitors); test: Quantification of UCP1 protein by immunohistochemistry (IHC); format: cell-based, human; settings: total intensity of UCP1 signal normalized to cell number
Procedure: Differentiation of brown adipocyte progenitors into brown adipocytes can be detected through quantification of UCP1 protein by immunohistochemistry (IHC).
Culturing and differentiation of CD31-cells into brown adipocytes were performed using adipogenic differentiation medium lacking (Minimal Differentiation Medium, MDM) or containing 1 μM rosiglitazone (Reference Differentiation Medium, RDM). After 15 days of differentiation cells were fixed with 4% Paraformaldehyde PBS pH 7.4, and incubated with a UCP1 antibody (Abcam ab23841) and Alexafluor 488 goat anti-rabbit antibody to quantify relative UCP1 levels (green) according to standard protocols. Prior to fixation of cells, nuclei were labeled with 5 μM DAPI (blue) for 10 minutes. Each treatment condition was evaluated in triplicate in a 96-well plate corresponding to approximately 360-480 cells for each data point in total. The InCell 1000 Developer Toolbox software was used to develop an automated cell detection script to measure UCP1 signal intensity, using the nuclei and cytoplasm detection algorithms. As a readout, total intensity of UCP1 signal within the cell was used, normalized to cell number.

Molecule | brown adipocyte differentiation (light microscopy) (CD31-cells) | differentiation of BAT progenitor cells into brown adipocytes and/or expression of UCP1, PPARγ2 mRNA [1] | UCP1 protein signal (IHC), differentiation of brown adipocyte progenitors into brown adipocytes [2]
O=c1c(O)c(-c2ccc(O)cc2)oc2cc(O)cc(O)c12 [kaempferol] | promote brown adipocyte formation | promote the differentiation of BAT progenitor cells into brown adipocytes and/or induce the expression of UCP1 | –
CCOC(=O)Oc1c(OC)cc(C(=O)O[C@@H]2C[C@@H]3CN4CCc5c([nH]c6cc(OC)ccc56)[C@H]4C[C@@H]3[C@H](C(=O)OC)[C@H]2OC)cc1OC [Syrosingopine] | promote brown adipocyte formation | – | identified using this technique
CCN(CC)CCNC(=O)c1cc(S(C)(=O)=O)ccc1OC [Tiapride hydrochloride] | promote brown adipocyte formation | – | identified using this technique
CCCN(CCC)S(=O)(=O)c1ccc(C(=O)O)cc1 [Probenecid] | promote brown adipocyte formation | – | identified using this technique
O=C(O)c1cc(-c2ccc(F)cc2F)ccc1O [Diflunisal] | promote brown adipocyte formation | – | identified using this technique
B1 | promote brown adipocyte formation | promote the differentiation of BAT progenitor cells into brown adipocytes and/or induce the expression of UCP1 | –
